In the test the target is T1, MDM4 (Homo sapiens, UniProt O15151+Q00987).
T1 construct: RING domain (MDM2-MDM4 RING heterodimer, pETDuet, E. coli); with MDM2 (RING domain)
In words: microscale thermophoresis on preformed, dye-labelled MDM2-MDM4 RING heterodimer. In kind it is binding.

The results in this text go back to article PMC9389462, “Small molecule MMRi62 targets MDM4 for degradation and induces leukemic cell apoptosis regardless of p53 status” (Frontiers in Oncology, 2022).

Structures are written as SMILES. pKd: −log10 of the molar value.

One may read the pKd as −log10 of the Kd, conventionally taken in molar units. The low end stands for a high Kd, the high end for a low Kd.

T1 sequence (O15151 416-490 limits assumed): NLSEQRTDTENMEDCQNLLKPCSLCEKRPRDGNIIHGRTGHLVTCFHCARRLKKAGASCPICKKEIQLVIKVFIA
T1 sequence (Q00987 430-491 limits assumed): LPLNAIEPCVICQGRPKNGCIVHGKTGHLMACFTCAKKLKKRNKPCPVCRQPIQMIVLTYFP

Compound `Oc1c(C(Nc2ccccn2)c2cccc(Cl)c2Cl)ccc2cccnc12` (racemic) [MMRi62] had a pKd of about 6.85.
The same measure for `O=C(O)c1ccc(C(Nc2ccccn2)c2cc(Cl)c3cccnc3c2O)cc1` (racemic) [MMRi67]: about 6.05.
